According to the NIST ThermoML archive (doi:10.1021/je200373q):
± gives the expanded uncertainty stated by the source.

Conditions: 101.33 kPa, Liquid, Vibrating tube method

mass density (273.15 K) [kg/m3] | mass density (278.15 K) [kg/m3] | mass density (283.15 K) [kg/m3] | mass density (288.15 K) [kg/m3] | mass density (293.15 K) [kg/m3] | mass density (298.15 K) [kg/m3] | mass density (303.15 K) [kg/m3] | mass density (308.15 K) [kg/m3] | mass density (313.15 K) [kg/m3] | mass density (318.15 K) [kg/m3] | mass density (323.15 K) [kg/m3] | mass density (328.15 K) [kg/m3] | mass density (333.15 K) [kg/m3] | mass density (338.15 K) [kg/m3] | mass density (343.15 K) [kg/m3] | mass density (348.15 K) [kg/m3] | mass density (353.15 K) [kg/m3] | mass density (358.15 K) [kg/m3] | mass density (363.15 K) [kg/m3] | Structure (SMILES)
732.83 ± 0.25 | 729.01 ± 0.25 | 725.16 ± 0.25 | 721.32 ± 0.25 | 717.45 ± 0.25 | 713.58 ± 0.25 | 709.69 ± 0.25 | 705.78 ± 0.25 | 701.86 ± 0.25 | 697.91 ± 0.25 | 693.95 ± 0.25 | 689.97 ± 0.25 | 685.97 ± 0.25 | 681.94 ± 0.25 | 677.88 ± 0.25 | 673.91 ± 0.25 | 669.71 ± 0.26 | 665.58 ± 0.26 | 661.14 ± 0.26 | CCCCCCCCC [nonane]
718.25 ± 0.25 | 714.31 ± 0.25 | 710.34 ± 0.25 | 706.35 ± 0.25 | 702.35 ± 0.25 | 698.34 ± 0.25 | 694.3 ± 0.25 | 690.24 ± 0.25 | 686.17 ± 0.25 | 682.06 ± 0.25 | 677.94 ± 0.25 | 673.79 ± 0.25 | 669.61 ± 0.26 | 665.4 ± 0.26 | 661.16 ± 0.26 | 656.88 ± 0.26 | 652.57 ± 0.26 | 648.23 ± 0.26 | 643.83 ± 0.26 | CCCCCCCC [octane]
